Data from ChEMBL document CHEMBL5104090, “Recent advances in the medicinal chemistry of carbonic anhydrase inhibitors” (Eur J Med Chem, 2021).

Columns and labels:
Carbonic anhydrase 9 [1] = target: T1, Carbonic anhydrase 9 (Homo sapiens, UniProt Q16790)
Carbonic anhydrase 12 = Carbonic anhydrase 12 (Homo sapiens, UniProt O43570)
Ca9-22 = assay: cells; assay type: functional; conditions: Homo sapiens, time 48 hrs
Description: Cytotoxicity against human Ca9-22 cells assessed as cell growth inhibition measured after 48 hrs by MTT assay

Carbonic anhydrase 1 [2] = target: T2, Carbonic anhydrase 1 (Homo sapiens, UniProt P00915)
T2 sequence (P00915 whole entry): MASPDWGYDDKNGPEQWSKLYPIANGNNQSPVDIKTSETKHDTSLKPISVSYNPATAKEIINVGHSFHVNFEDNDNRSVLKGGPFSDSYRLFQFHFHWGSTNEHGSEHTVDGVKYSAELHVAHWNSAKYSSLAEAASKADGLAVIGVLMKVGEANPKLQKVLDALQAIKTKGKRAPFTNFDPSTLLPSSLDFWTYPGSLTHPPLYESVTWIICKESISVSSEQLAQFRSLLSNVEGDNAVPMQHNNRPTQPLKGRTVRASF

Carbonic anhydrase 4 = Carbonic anhydrase 4 (Homo sapiens, UniProt P22748)
Chain of Carbonic anhydrase 4 (P22748 whole entry): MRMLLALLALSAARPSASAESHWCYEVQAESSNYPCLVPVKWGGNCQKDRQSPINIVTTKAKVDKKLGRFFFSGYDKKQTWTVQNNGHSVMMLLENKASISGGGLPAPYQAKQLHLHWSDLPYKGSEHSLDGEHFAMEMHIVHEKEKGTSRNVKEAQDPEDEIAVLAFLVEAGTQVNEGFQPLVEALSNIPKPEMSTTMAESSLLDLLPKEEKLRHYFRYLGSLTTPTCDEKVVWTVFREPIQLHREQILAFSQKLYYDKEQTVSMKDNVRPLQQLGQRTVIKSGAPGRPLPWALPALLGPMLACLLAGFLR

Carbonic anhydrase 1 [3] = target: T2, Carbonic anhydrase 1; remark: listed apart in the source
Carbonic anhydrase 2 = Carbonic anhydrase 2 (Homo sapiens, UniProt P00918)
Carbonic anhydrase 9 [4] = target: T1, Carbonic anhydrase 9; remark: listed apart in the source

Chain of Carbonic anhydrase 12 (O43570 whole entry): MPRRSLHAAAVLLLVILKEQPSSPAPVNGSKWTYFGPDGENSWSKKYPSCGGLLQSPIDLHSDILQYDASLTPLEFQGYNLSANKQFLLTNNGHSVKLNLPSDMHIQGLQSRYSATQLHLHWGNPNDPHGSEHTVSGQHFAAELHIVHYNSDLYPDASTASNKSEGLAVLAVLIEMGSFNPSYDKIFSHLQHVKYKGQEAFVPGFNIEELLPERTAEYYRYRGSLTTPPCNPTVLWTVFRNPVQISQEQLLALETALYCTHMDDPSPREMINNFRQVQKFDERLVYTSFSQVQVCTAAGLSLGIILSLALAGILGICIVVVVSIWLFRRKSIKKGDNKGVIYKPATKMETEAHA

Structure (SMILES) | Ki (Carbonic anhydrase 9 [1]) [nM] | Ki (Carbonic anhydrase 1 [3]) [nM] | Ki (Carbonic anhydrase 2) [nM] | further results
COc1ccc2nc(S/C(=N/Nc3ccc(S(N)(=O)=O)cc3)C(C)=O)n(-c3ccccc3)c(=O)c2c1 | 1.6 |  |  | 
CN1C(=O)/C(=N\NC(=O)CNc2ccc(S(N)(=O)=O)cc2)c2ccccc21 | 13.9 |  |  | Ki (Carbonic anhydrase 12): 34.3 nM
C/C(=N\O)c1ccc(N2C(=O)c3ccc(C(C)(C)C)cc3C2=O)cc1 | 169 |  |  | 
COc1cc(OC)c(C2CC(c3ccccc3)=NN2c2ccc(S(N)(=O)=O)cc2)cc1OC (stereo unspecified) | > 44 |  |  | CC50 (Ca9-22): 6300 nM; Ki (Carbonic anhydrase 1 [2]): > 230 nM; Ki (Carbonic anhydrase 12): > 9 nM
Cc1ccc(-c2cc(C(F)(F)F)nn2-c2ccc(S(N)(=O)=O)cc2)cc1 [CELECOXIB] | 14.8 |  |  | 
CN1C(=O)/C(=N\Nc2ccc(S(N)(=O)=O)cc2)c2ccccc21 | 13.9 |  |  | 
COc1ccc(C2CC(c3ccc(Cl)cc3)=NN2c2ccc(S(N)(=O)=O)cc2)c(OC)c1OC (stereo unspecified) | > 44 |  |  | CC50 (Ca9-22): 6300 nM; Ki (Carbonic anhydrase 1 [2]): > 230 nM; Ki (Carbonic anhydrase 12): > 9 nM
C/C(=N\O)c1ccc(N2C(=O)C3CC=CCC3C2=O)cc1 (stereo unspecified) | 169 |  |  | 
NS(=O)(=O)c1cccc(N/C=C/C(=O)c2ccco2)c1 |  |  |  | Ki (Carbonic anhydrase 4): 64.5 nM
O=S1(=O)CC=Cc2cccc(-c3ccc(F)cc3)c2O1 |  | > 100000 | > 100000 | 
O=S1(=O)CC=Cc2cc(-c3ccc(F)cc3)ccc2O1 |  | > 100000 | > 100000 | 
NS(=O)(=O)c1ccc(CCn2c(SCc3ccc(F)cc3)nc3ccccc3c2=O)cc1 |  |  |  | Ki (Carbonic anhydrase 9 [4]): 19.3 nM
COc1ccc(-c2ccc3c(c2)OS(=O)(=O)CC=C3)cc1 |  | > 100000 | > 100000 | 
NS(=O)(=O)c1ccc(NCC(=O)N/N=C2\C(=O)N(C(=O)c3ccccc3)c3ccccc32)cc1 | 65.3 |  |  | 
CCN1C(=O)/C(=N\NC(=O)CNc2ccc(S(N)(=O)=O)cc2)c2ccccc21 |  |  |  | Ki (Carbonic anhydrase 12): 34.3 nM
O=S1(=O)CC=Cc2ccc(-c3ccc(C(F)(F)F)cc3)cc2O1 |  | > 100000 | > 100000 | 
COc1ccc(-c2cccc3c2OS(=O)(=O)CC=C3)cc1 |  | > 100000 | > 100000 | 
COc1cc(OC)c(C2CC(c3ccc(Cl)cc3)=NN2c2ccc(S(N)(=O)=O)cc2)cc1OC (stereo unspecified) | > 44 |  |  | CC50 (Ca9-22): 6300 nM; Ki (Carbonic anhydrase 1 [2]): > 230 nM; Ki (Carbonic anhydrase 12): > 9 nM
COc1cc(C2CC(c3ccc(C(F)(F)F)cc3)=NN2c2ccc(S(N)(=O)=O)cc2)cc(OC)c1OC (stereo unspecified) | > 44 |  |  | CC50 (Ca9-22): 6300 nM; Ki (Carbonic anhydrase 1 [2]): > 230 nM; Ki (Carbonic anhydrase 12): > 9 nM
O=S1(=O)CC=Cc2cc(I)ccc2O1 |  | > 100000 | > 100000 | 

Structure (SMILES) | Ki (Carbonic anhydrase 9 [1]) [nM] | Ki (Carbonic anhydrase 1 [3]) [nM] | Ki (Carbonic anhydrase 2) [nM] | further results
NS(=O)(=O)c1ccc(/N=C2\C(=O)N(Cc3ccccc3)c3ccccc32)cc1 | 13.9 |  |  | Ki (Carbonic anhydrase 12): 34.3 nM
C=CCN1C(=O)/C(=N\NC(=O)CNc2ccc(S(N)(=O)=O)cc2)c2ccccc21 | 13.9 |  |  | Ki (Carbonic anhydrase 12): 34.3 nM
C/C(=N\O)c1ccc(N2C(=O)c3c(Cl)c(Cl)c(Cl)c(Cl)c3C2=O)cc1 | 169 |  |  | 
C/C(=N\NC(=O)c1ccc(S(N)(=O)=O)cc1)c1ccc(N2C(=O)c3ccc(C)cc3C2=O)cc1 | 17.3 |  |  | 
O=S1(=O)CC=Cc2ccc(-c3ccccc3)cc2O1 |  | > 100000 | > 100000 | 
O=S1(=O)CC=Cc2cccc(-c3ccc(C(F)(F)F)cc3)c2O1 |  | > 100000 | > 100000 | 
C=CCN1C(=O)/C(=N\Nc2ccc(S(N)(=O)=O)cc2)c2ccccc21 |  |  |  | Ki (Carbonic anhydrase 12): 34.3 nM
O=S1(=O)CC=Cc2cccc(Br)c2O1 |  | > 100000 | > 100000 | 
O=S1(=O)CC=Cc2cc(-c3ccc(C(F)(F)F)cc3)ccc2O1 |  | > 100000 | > 100000 | 
CCN1C(=O)/C(=N\c2ccc(S(N)(=O)=O)cc2)c2ccccc21 | 13.9 |  |  | Ki (Carbonic anhydrase 12): 34.3 nM
C/C(=N\O)c1ccc(N2C(=O)c3cc(Cl)c(Cl)cc3C2=O)cc1 | 169 |  |  | 
C/C(=N\NC(=O)c1ccc(S(N)(=O)=O)cc1)c1ccc(N2C(=O)c3ccc(C(C)(C)C)cc3C2=O)cc1 | 83.8 |  |  | 
NS(=O)(=O)c1cccc(N/C=C/C(=O)c2ccc(Cl)cc2)c1 |  |  |  | Ki (Carbonic anhydrase 4): 6.5 nM
C/C(=N\O)c1ccc(N2C(=O)c3ccc(C)cc3C2=O)cc1 | 169 |  |  | 
COc1ccc(C2CC(c3cccs3)=NN2c2ccc(S(N)(=O)=O)cc2)c(OC)c1OC (stereo unspecified) | > 44 |  |  | CC50 (Ca9-22): 6300 nM; Ki (Carbonic anhydrase 1 [2]): > 230 nM; Ki (Carbonic anhydrase 12): > 9 nM
NS(=O)(=O)c1ccc(N/C=C/C(=O)c2ccccc2)cc1 |  |  |  | Ki (Carbonic anhydrase 9 [4]): 0.21 nM
COc1ccc(-c2ccc3c(c2)C=CCS(=O)(=O)O3)cc1 |  | > 100000 | > 100000 | 
CCOC(=O)c1ccc(-c2cccc3c2OS(=O)(=O)CC=C3)cc1 |  | > 100000 | > 100000 | 
Cc1ccc(C(=O)/C=C/Nc2ccc(S(N)(=O)=O)cc2)cc1 |  |  |  | Ki (Carbonic anhydrase 9 [4]): 0.21 nM
NS(=O)(=O)c1ccc(N/N=C2\C(=O)N(Cc3ccccc3)c3ccccc32)cc1 | 13.9 |  |  | 
